Reference: ChEMBL document CHEMBL4251634, “Synthesis and antimicrobial activity of pyrimidinyl 1,3,4-oxadiazoles, 1,3,4-thiadiazoles and 1,2,4-triazoles” (2018)
Calls of active or inactive are those of the source. The rule behind the calls is not given here.

What was measured:
Format in all cases: functional
Staphylococcus aureus [1] = assay: Antibacterial activity against Staphylococcus aureus assessed as diameter of inhibition zone at 12.5 ug/well after 24 hrs by agar well diffusion method
Staphylococcus aureus [2] = assay: Antibacterial activity against Staphylococcus aureus assessed as diameter of inhibition zone at 25 ug/well after 24 hrs by agar well diffusion method; settings: for zone of inhibition at 25 µg/disc: read-out: DIZ
Staphylococcus aureus [3] = assay: Antibacterial activity against Staphylococcus aureus assessed as diameter of inhibition zone at 50 ug/well after 24 hrs by agar well diffusion method; settings: for zone of inhibition at 50 µg/disc: read-out: DIZ
Staphylococcus aureus [4] = assay: Antibacterial activity against Staphylococcus aureus assessed as diameter of inhibition zone at 100 ug/well after 24 hrs by agar well diffusion method; settings: for zone of inhibition at 100 µg/disc: read-out: DIZ
Bacillus subtilis [5] = assay: Antibacterial activity against Bacillus subtilis assessed as diameter of inhibition zone at 12.5 ug/well after 24 hrs by agar well diffusion method; settings: for zone of inhibition at 12.5 µg/disc: read-out: DIZ
Bacillus subtilis [6] = assay: Antibacterial activity against Bacillus subtilis assessed as diameter of inhibition zone at 25 ug/well after 24 hrs by agar well diffusion method; settings: for zone of inhibition at 25 µg/disc: read-out: DIZ
Bacillus subtilis [7] = assay: Antibacterial activity against Bacillus subtilis assessed as diameter of inhibition zone at 50 ug/well after 24 hrs by agar well diffusion method; settings: for zone of inhibition at 50 µg/disc: read-out: DIZ
Bacillus subtilis [8] = assay: Antibacterial activity against Bacillus subtilis assessed as diameter of inhibition zone at 100 ug/well after 24 hrs by agar well diffusion method; settings: read-out: DIZ
Pseudomonas aeruginosa [9] = assay: Antibacterial activity against Pseudomonas aeruginosa assessed as diameter of inhibition zone at 12.5 ug/well after 24 hrs by agar well diffusion method; settings: read-out: DIZ
Pseudomonas aeruginosa [10] = assay: Antibacterial activity against Pseudomonas aeruginosa assessed as diameter of inhibition zone at 25 ug/well after 24 hrs by agar well diffusion method; settings: read-out: DIZ
Pseudomonas aeruginosa [11] = assay: Antibacterial activity against Pseudomonas aeruginosa assessed as diameter of inhibition zone at 50 ug/well after 24 hrs by agar well diffusion method; settings: read-out: DIZ
Pseudomonas aeruginosa [12] = assay: Antibacterial activity against Pseudomonas aeruginosa assessed as diameter of inhibition zone at 100 ug/well after 24 hrs by agar well diffusion method; settings: read-out: DIZ
Klebsiella pneumoniae [13] = assay: Antibacterial activity against Klebsiella pneumoniae assessed as diameter of inhibition zone at 12.5 ug/well after 24 hrs by agar well diffusion method; settings: for zone of inhibition at 12.5 µg/disc: read-out: DIZ
Klebsiella pneumoniae [14] = assay: Antibacterial activity against Klebsiella pneumoniae assessed as diameter of inhibition zone at 25 ug/well after 24 hrs by agar well diffusion method; settings: read-out: DIZ
Klebsiella pneumoniae [15] = assay: Antibacterial activity against Klebsiella pneumoniae assessed as diameter of inhibition zone at 50 ug/well after 24 hrs by agar well diffusion method; settings: read-out: DIZ
Klebsiella pneumoniae [16] = assay: Antibacterial activity against Klebsiella pneumoniae assessed as diameter of inhibition zone at 100 ug/well after 24 hrs by agar well diffusion method; settings: read-out: DIZ
Aspergillus niger [17] = assay: Antifungal activity against Aspergillus niger assessed as diameter of inhibition zone at 12.5 ug/well after 48 hrs by agar well diffusion method; settings: read-out: DIZ
Aspergillus niger [18] = assay: Antifungal activity against Aspergillus niger assessed as diameter of inhibition zone at 25 ug/well after 48 hrs by agar well diffusion method; settings: read-out: DIZ
Aspergillus niger [19] = assay: Antifungal activity against Aspergillus niger assessed as diameter of inhibition zone at 50 ug/well after 48 hrs by agar well diffusion method; settings: read-out: DIZ
Aspergillus niger [20] = assay: Antifungal activity against Aspergillus niger assessed as diameter of inhibition zone at 100 ug/well after 48 hrs by agar well diffusion method; settings: read-out: DIZ
Penicillium chrysogenum [21] = assay: Antifungal activity against Penicillium chrysogenum assessed as diameter of inhibition zone at 12.5 ug/well after 48 hrs by agar well diffusion method; settings: for zone of inhibition at 12.5 µg/disc: read-out: DIZ
Penicillium chrysogenum [22] = assay: Antifungal activity against Penicillium chrysogenum assessed as diameter of inhibition zone at 25 ug/well after 48 hrs by agar well diffusion method; settings: read-out: DIZ
Penicillium chrysogenum [23] = assay: Antifungal activity against Penicillium chrysogenum assessed as diameter of inhibition zone at 50 ug/well after 48 hrs by agar well diffusion method; settings: read-out: DIZ
Penicillium chrysogenum [24] = assay: Antifungal activity against Penicillium chrysogenum assessed as diameter of inhibition zone at 100 ug/well after 48 hrs by agar well diffusion method; settings: read-out: DIZ

Compound | diameter of the inhibition zone (DIZ) (Staphylococcus aureus [1]) | diameter of the inhibition zone (DIZ) (Staphylococcus aureus [2]) | diameter of the inhibition zone (DIZ) (Staphylococcus aureus [3]) | zone of inhibition at 100 µg/disc (Bacillus subtilis [8]) | zone of inhibition at 12.5 µg/disc (Pseudomonas aeruginosa [9]) | zone of inhibition at 25 µg/disc (Pseudomonas aeruginosa [10]) | zone of inhibition at 50 µg/disc (Pseudomonas aeruginosa [11]) | zone of inhibition at 100 µg/disc (Pseudomonas aeruginosa [12]) | zone of inhibition at 25 µg/disc (Klebsiella pneumoniae [14]) | zone of inhibition at 50 µg/disc (Klebsiella pneumoniae [15]) | zone of inhibition at 100 µg/disc (Klebsiella pneumoniae [16]) | zone of inhibition at 12.5 µg/disc (Aspergillus niger [17]) | zone of inhibition at 25 µg/disc (Aspergillus niger [18]) | zone of inhibition at 50 µg/disc (Aspergillus niger [19]) | zone of inhibition at 100 µg/disc (Aspergillus niger [20]) | zone of inhibition at 12.5 µg/disc (Penicillium chrysogenum [21]) | zone of inhibition at 25 µg/disc (Penicillium chrysogenum [22]) | zone of inhibition at 50 µg/disc (Penicillium chrysogenum [23]) | zone of inhibition at 100 µg/disc (Penicillium chrysogenum [24]) | zone of inhibition at 12.5 µg/disc (Klebsiella pneumoniae [13]) | also measured
Cc1cc(SCc2nnc(-c3ccccc3)o2)nc(SCc2nnc(-c3ccccc3)o2)n1 | inactive | inactive | inactive | 7 mm | 7 mm | 9 mm | 11 mm | 14 mm | 7 mm | 9 mm | 12 mm | 14 mm | 16 mm | 18 mm | 21 mm | 8 mm | 10 mm | 11 mm | 13 mm |  | diameter of the inhibition zone (DIZ) (Staphylococcus aureus [4]): inactive; diameter of the inhibition zone (DIZ) (Bacillus subtilis [5]): inactive; diameter of the inhibition zone (DIZ) (Bacillus subtilis [6]): inactive; diameter of the inhibition zone (DIZ) (Bacillus subtilis [7]): inactive; diameter of the inhibition zone (DIZ) (Klebsiella pneumoniae [13]): inactive
Cc1cc(SCc2nnc(-c3ccc(Br)cc3)o2)nc(SCc2nnc(-c3ccc(Br)cc3)o2)n1 | inactive | inactive | inactive | 8 mm | 9 mm | 11 mm | 13 mm | 15 mm | 10 mm | 12 mm | 15 mm | 13 mm | 15 mm | 17 mm | 19 mm |  | 7 mm | 9 mm | 11 mm | 8 mm | diameter of the inhibition zone (DIZ) (Staphylococcus aureus [4]): inactive; diameter of the inhibition zone (DIZ) (Bacillus subtilis [5]): inactive; diameter of the inhibition zone (DIZ) (Bacillus subtilis [6]): inactive; diameter of the inhibition zone (DIZ) (Bacillus subtilis [7]): inactive; diameter of the inhibition zone (DIZ) (Penicillium chrysogenum [21]): inactive
Cc1cc(SCc2nnc(-c3ccc([N+](=O)[O-])cc3)o2)nc(SCc2nnc(-c3ccc([N+](=O)[O-])cc3)o2)n1 | inactive |  |  | 15 mm | 11 mm | 14 mm | 16 mm | 21 mm | 17 mm | 19 mm | 21 mm | 20 mm | 22 mm | 24 mm | 27 mm | 12 mm | 14 mm | 16 mm | 19 mm | 15 mm | zone of inhibition at 25 µg/disc (Staphylococcus aureus [2]): 7 mm; zone of inhibition at 50 µg/disc (Staphylococcus aureus [3]): 8 mm; zone of inhibition at 100 µg/disc (Staphylococcus aureus [4]): 10 mm; zone of inhibition at 12.5 µg/disc (Bacillus subtilis [5]): 9 mm; zone of inhibition at 25 µg/disc (Bacillus subtilis [6]): 11 mm; zone of inhibition at 50 µg/disc (Bacillus subtilis [7]): 13 mm
Cc1cc(SCc2nnc(-c3ccc(Br)cc3)n2N)nc(SCc2nnc(-c3ccc(Br)cc3)n2N)n1 |  |  |  | 20 mm | 16 mm | 20 mm | 22 mm | 25 mm | 23 mm | 25 mm | 28 mm | 27 mm | 29 mm | 31 mm | 34 mm | 17 mm | 19 mm | 21 mm | 24 mm | 21 mm | zone of inhibition at 12.5 µg/disc (Staphylococcus aureus [1]; read-out: DIZ): 9 mm; zone of inhibition at 25 µg/disc (Staphylococcus aureus [2]): 10 mm; zone of inhibition at 50 µg/disc (Staphylococcus aureus [3]): 12 mm; zone of inhibition at 100 µg/disc (Staphylococcus aureus [4]): 14 mm; zone of inhibition at 12.5 µg/disc (Bacillus subtilis [5]): 15 mm; zone of inhibition at 25 µg/disc (Bacillus subtilis [6]): 16 mm; zone of inhibition at 50 µg/disc (Bacillus subtilis [7]): 18 mm
